Each block holds one molecule with its values, some of them ahead of it. Active and inactive are the calls of the source. The calls are words filed in the database; no cut-off is given here.
Key:
Prostaglandin E synthase [1] = target: T1, Prostaglandin E synthase (Homo sapiens, UniProt O14684); test: Inhibition of human recombinant FLAG-tagged PTGES expressed in baculovirus infected Hi-5 insect cells using prostaglandin H2 as substrate preincubated for 20 mins followed by substrate addition and incubated for 60 sec by TR-FRET assay
T1 sequence (O14684 whole entry): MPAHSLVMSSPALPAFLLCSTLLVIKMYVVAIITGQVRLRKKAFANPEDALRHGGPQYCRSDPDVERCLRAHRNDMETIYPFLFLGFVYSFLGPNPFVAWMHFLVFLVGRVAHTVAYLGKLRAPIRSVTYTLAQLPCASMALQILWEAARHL

[2] = Apparent permeability across apical to basolateral side in human Caco2 cells measured at 2 uM incubated for 2 hrs by LC/MS/MS analysis; format: ADME, cell-based; conditions: Caco-2
[3] = Oral bioavailability in Wistar rat at 0.5 to 1 mg/kg measured upto 24 hrs by LC-MS/MS; format: ADME, organism-based; conditions: in vivo
[4] = Inhibition of rat recombinant FLAG-tagged PTGES expressed in baculovirus infected Hi-5 insect cells using prostaglandin H2 as substrate incubated for 20 mins followed by substrate addition and incubated for 60 sec by TR-FRET assay
Prostaglandin E synthase [5] = target: T2, Prostaglandin E synthase (Mus musculus, UniProt Q9JM51); test: Inhibition of mouse recombinant FLAG-tagged PTGES expressed in baculovirus infected Hi-5 insect cells using prostaglandin H2 as substrate incubated for 20 mins followed by substrate addition and incubated for 60 sec by TR-FRET assay
T2 sequence (Q9JM51 whole entry): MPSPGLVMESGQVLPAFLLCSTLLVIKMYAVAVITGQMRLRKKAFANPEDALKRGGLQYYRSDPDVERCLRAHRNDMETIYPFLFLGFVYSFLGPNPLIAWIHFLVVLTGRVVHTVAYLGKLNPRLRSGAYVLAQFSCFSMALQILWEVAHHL

[6] = Selectivity ratio of IC50 for mouse recombinant FLAG-tagged PTGES to human recombinant FLAG-tagged PTGES expressed in baculovirus infected Hi-5 insect cells using prostaglandin H2 as substrate preincubated for 20 mins followed by substrate addition and incubated for 60 sec by TR-FRET assay
Mus musculus [7] = test: Antinociceptive activity in C57BL/6 mouse model of complete Freund's adjuvant-induced inflammatory pain assessed as inhibition of PGE2 production at 100 mg/kg, po administered after 2 days of CFA induction and measured after 1 hr by ELISA; format: functional, organism-based
Rattus norvegicus [8] = test: Antihyperalgesia activity in Sprague-Dawley rat endometriosis model assessed as viscero-motor response at 75 mg/kg, po bid administered for 3 to 5 weeks of post surgery by EMG method; format: functional, organism-based
Rattus norvegicus [9] = test: Antihyperalgesia activity in Sprague-Dawley rat endometriosis model assessed as decrease in proliferation of lesions by measuring expression of Ki67 at 75 mg/kg, po bid administered for 3 to 5 weeks of post surgery by RT-PCR analysis; format: functional, organism-based
[10] = Hepatic extraction ratio in Han Wistar rat liver microsomes at 1 uM measured upto 90 mins by LC-MS/MS; format: ADME, Microsome; conditions: read-out: ERH
[11] = Efflux ratio of apparent permeability from basolateral to apical over apical to basolateral side in human Caco2 cells at 2 uM incubated for 2 hrs by LC/MS/MS analysis; format: ADME, cell-based; conditions: Caco-2
[12] = Total blood clearance in Wistar rat blood at 0.5 to 1 mg/kg, […] 0.5 to 10 mg/kg, ig measured upto 24 hrs by LC-MS/MS; format: ADME, organism-based; conditions: whole blood
[13] = Volume of distribution at steady state in Wistar rat blood at 0.5 to 1 mg/kg, […] 0.5 to 10 mg/kg, ig measured upto 24 hrs by LC-MS/MS; format: ADME, organism-based; conditions: in vivo
[14] = Half life in Wistar rat blood at 0.5 to 1 mg/kg, […] 0.5 to 10 mg/kg, ig LC-MS/MS; format: ADME, organism-based; conditions: whole blood
Mus musculus [15] = test: Antinociceptive activity in C57BL/6 mouse model of complete Freund's adjuvant-induced inflammatory pain assessed as reduction in pain-related behavior at 30 to 100 mg/kg, po administered after 2 days of CFA induction and measured after 1 hr by using Plexiglas chamber; format: functional, organism-based
Mus musculus [16] = test: Antinociceptive activity in C57BL/6 mouse model of complete Freund's adjuvant-induced inflammatory pain assessed as inhibition of PGE2 production at 30 to 100 mg/kg, po administered after 2 days of CFA induction and measured after 1 hr by ELISA; format: functional, organism-based
[17] = Ratio of unbound drug level in CFA-induced mouse to IC50 for mouse recombinant FLAG-tagged PTGES inhibition; format: ADME; conditions: in vivo
Rattus norvegicus [18] = test: Antihyperalgesia activity in Sprague-Dawley rat endometriosis model assessed as viscero-motor response at 75 mg/kg, po bid administered for 3 to 5 weeks of post surgery and measured after 1 week by EMG method; format: functional, organism-based

SMILES: Cc1c(CCC(=O)O)cccc1C(=O)NC(c1ccc(-c2cncc(Cl)c2)cc1)C1CCCC1 (stereo not given)
- IC50 (Prostaglandin E synthase [1]): > 20 µM

SMILES: O=C(O)CCc1cccc(NC(=O)C(c2ccc(-c3cncc(Cl)c3)cc2)C2CCCC2)c1OC(F)(F)F (stereo not given)
- IC50 (Prostaglandin E synthase [1]): > 20 µM

SMILES: Cc1c(CCC(=O)O)cccc1NC(=O)C(c1ccccc1)c1ccc(-c2cncc(Cl)c2)cc1 (stereo not given)
- IC50 (Prostaglandin E synthase [1]): 4.49 µM

SMILES: Cc1c(NC(=O)[C@@H](c2ccc(-c3cncc(Cl)c3)cc2)C2CCCC2)cccc1OCC(=O)O
- Papp A→B at 2 h, 2 µM [2]: 0.22 ×10⁻⁶ cm/s
- bioavailability [3]: 8%

SMILES: Cc1c(NC(=O)[C@H](c2ccc(-c3cncc(Cl)c3)cc2)C2CCCC2)cccc1[C@H](C)CC(=O)O
- IC50 [4]: 8.46 µM
- IC50 (Prostaglandin E synthase [5]): 3.08 µM

SMILES: Cc1c(CCC(=O)O)cccc1NC(=O)C(c1ccc(-c2cncc(Cl)c2)cc1)C1CCN(C)C1=O (stereo not given)
- IC50 (Prostaglandin E synthase [1]): > 20 µM

SMILES: Cc1ccc(-c2ccc(C(C(=O)Nc3cccc(CCC(=O)O)c3C)C3CCCC3)cc2)cn1 (stereo not given)
- Ratio IC50 [6]: 5

SMILES: CC(C)Cc1ccc(C(C)C(=O)O)cc1 (stereo not given)
- Activity (Mus musculus [7]): Active

SMILES: Cc1c(CCC(=O)O)cccc1N(C)C(=O)C(c1ccc(-c2cncc(Cl)c2)cc1)C1CCCC1 (stereo not given)
- IC50 (Prostaglandin E synthase [1]): > 20 µM

SMILES: CC[C@@H](CC(=O)O)c1cccc(NC(=O)C(c2ccc(-c3cncc(CC(C)C)c3)cc2)C2CCCC2)c1C (stereo not given in full)
- IC50 [4]: 0.162 µM
- IC50 (Prostaglandin E synthase [5]): 0.084 µM

SMILES: Cc1c(NC(=O)[C@H](c2ccc(-c3cncc(Cl)c3)cc2)C2CCCC2)cccc1[C@@H](C)CC(=O)O
- IC50 [4]: 17.7 µM
- IC50 (Prostaglandin E synthase [5]): 12.6 µM

SMILES: Cc1c(NC(=O)[C@@H](c2ccc(-c3cncc(Cl)c3)cc2)C2CCCC2)cccc1[C@@H](C)CC(=O)O
- IC50 [4]: 1.36 µM
- IC50 (Prostaglandin E synthase [5]): 0.584 µM

SMILES: Cc1c(CCC(=O)O)cccc1NC(=O)C(c1ccc(-c2cncc(Cl)c2)cn1)C1CCCC1 (stereo not given)
- IC50 (Prostaglandin E synthase [1]): 2.33 µM

SMILES: Cc1c(NC(=O)[C@@H](c2ccc(-c3cncc(Cl)c3)cc2)C2CCCC2)cccc1[C@H](C)CC(=O)O
- IC50 [4]: 0.895 µM
- IC50 (Prostaglandin E synthase [5]): 0.339 µM

SMILES: Cc1c(CCc2nnn[nH]2)cccc1NC(=O)C(c1ccc(-c2cncc(Cl)c2)cc1)C1CCCC1 (stereo not given)
- IC50 (Prostaglandin E synthase [1]): 0.152 µM

SMILES: CCc1cncc(-c2ccc(C(C(=O)Nc3cccc([C@@H](CC)CC(=O)O)c3C)C3CCCC3)cc2)c1 (stereo not given in full)
- hepatic extraction ratio at […], 1 µM [10]: 0.44
- IC50 [4]: 0.19 µM
- IC50 (Prostaglandin E synthase [5]): 0.203 µM

SMILES: O=C(O)CCc1ccc(NC(=O)C(c2ccc(-c3cncc(Cl)c3)cc2)C2CCCC2)cc1 (stereo not given)
- IC50 (Prostaglandin E synthase [1]): > 20 µM

Now from value to molecule, other results behind:

- IC50 (Prostaglandin E synthase [1]): > 20 µM
SMILES: Cc1ncccc1-c1ccc(C(C(=O)Nc2cccc(CCC(=O)O)c2C)C2CCCC2)cc1 (stereo not given)

- Papp A→B at 2 h, 2 µM [2]: 5.9 ×10⁻⁶ cm/s
- bioavailability [3]: 72%
SMILES: Cc1c(CCC(=O)O)cccc1NC(=O)[C@@H](c1ccc(-c2cncc(Cl)c2)c(F)c1)C1CCCC1

- IC50 (Prostaglandin E synthase [1]): > 20 µM
SMILES: Cc1c(CCC(=O)O)cccc1NC(=O)C(c1ccc(-c2ccccn2)cc1)C1CCCC1 (stereo not given)

- IC50 (Prostaglandin E synthase [1]): 5.86 µM
SMILES: Cc1c(CCC(=O)O)cccc1NC(=O)C(c1cccc(-c2ccccc2)c1)C1CCCC1 (stereo not given)

- IC50 (Prostaglandin E synthase [1]): 9.26 µM
SMILES: Cc1c(CCC(=O)O)cccc1NC(=O)C(c1ccc(-c2ccncc2)cc1)C1CCCC1 (stereo not given)

- Papp A→B at 2 h, 2 µM [2]: 3.6 ×10⁻⁶ cm/s
SMILES: Cc1c(CCC(=O)O)cccc1NC(=O)[C@@H](c1ccc(-c2cccnc2)cc1)C1CCCC1

- IC50 (Prostaglandin E synthase [1]): 0.327 µM
SMILES: Cc1c(CCC(=O)O)cccc1NC(=O)C(c1ccc(-c2cncc(Cl)c2)nc1)C1CCCC1 (stereo not given)

- IC50 (Prostaglandin E synthase [1]): 0.276 µM
SMILES: Cc1c(CCC(=O)O)cccc1NC(=O)C(c1ccc(-c2cccc(Cl)c2)cc1)C1CCCC1 (stereo not given)

- IC50 (Prostaglandin E synthase [1]): > 20 µM
SMILES: Cc1c(CCC(=O)O)cccc1NC(=O)C(c1cccc(-c2cccnc2)c1)C1CCCC1 (stereo not given)

- hepatic extraction ratio at […], 1 µM [10]: 0.02
- Papp A→B at 2 h, 2 µM [2]: 6.9 ×10⁻⁶ cm/s
- efflux ratio at 2 h, 2 µM [11]: 2.9
- bioavailability [3]: 98%
- IC50 (Prostaglandin E synthase [5]): 0.765 µM
- CL/F [12]: 5 mL/min/kg
- Vdss [13]: 0.9 L/kg
- half-life [14]: 4.3 h
- Ratio [17]: 3
SMILES: Cc1c(CCC(=O)O)cccc1NC(=O)[C@@H](c1ccc(-c2cncc(Cl)c2)cc1)C1CCCC1
- Activity (Rattus norvegicus [8]): Active
- Activity (Rattus norvegicus [9]): Active
- IC50 [4]: 1.27 µM
- Activity (Mus musculus [15]): Active
- Activity (Mus musculus [16]): Active
- Activity (Rattus norvegicus [18]): Active

- IC50 (Prostaglandin E synthase [5]): 0.818 µM
SMILES: Cc1cncc(-c2ccc(C(C(=O)Nc3cccc(CCC(=O)O)c3C)C3CCCC3)cc2)c1 (stereo not given)
- IC50 [4]: 2.59 µM

- Papp A→B at 2 h, 2 µM [2]: 8 ×10⁻⁶ cm/s
- bioavailability [3]: 73%
SMILES: Cc1c(CCC(=O)O)cccc1NC(=O)[C@@H](c1ccc(-c2cncc(C(F)(F)F)c2)cc1)C1CCCC1

- IC50 (Prostaglandin E synthase [5]): 0.191 µM
SMILES: Cc1c(CCC(=O)O)cccc1NC(=O)C(c1ccc(-c2cncc(CC(C)C)c2)cc1)C1CCCC1 (stereo not given)

Reference: ChEMBL document CHEMBL4346755, “Discovery and optimization of pyridyl-cycloalkyl-carboxylic acids as inhibitors of microsomal prostaglandin E synthase-1 for the treatment of endometriosis” (Bioorg Med Chem Lett, 2019)
